Results reported in the NIST ThermoML archive (doi:10.1016/j.fluid.2015.07.026).

Details: Liquid, Pendant drop shape

[Ar] [argon] + O
interfacial tension [mN/m]
Details | 2000 kPa | 5000 kPa | 10000 kPa | 15000 kPa | 20000 kPa | 25000 kPa | 30000 kPa | 40000 kPa | 50000 kPa
298.01 K | 71.6 | 69.7 | 67.4 | 65.3 | 63.3 | 61.9 | 60.7 | 58.6 | 57
323.16 K | 67.1 | 65.7 | 63.2 | 61.1 | 59.4 | 57.9 | 56.5 | 54.5 | 53.3
373.28 K | 58.5 | 57.2 | 55.5 | 53.9 | 52.7 | 51.6 | 50.8 | 49.3 | 48.2
448.07 K | 43.1 | 42.5 | 41.3 | 40.3 | 39.5 | 38.8 | 38.3 | 37.3 | 36.6
473.53 K | 37.3 | 36.5 | 35.6 | 34.8 | 34.1 | 33.7 | 33.1 | 32.9 | 32.8
